# Measurements: the OPERA property sets (Mansouri et al. 2018)
# Where a SMILES comes first, the peptide text is derived from it.
SMILES,logP,solubility
C/C=C(/C)C(=O)O[C@H]1CCN2CC=C(COC(=O)[C@](O)([C@H](C)OC)C(C)(C)O)[C@H]12,1.28,
CCCCCCOCCOCCO,1.7,
CC(C)Nc1nc(N)nc(Cl)n1,1.51,1.97 mM
COc1ccc(C(=O)CS(=O)(=O)c2ccc(C)cc2)cc1,2.47,
c1ncncn1,0.12,
CCN=c1nc(Cl)[nH]c(=NC(C)CC)[nH]1 (configuration not stated),2.61,
CC(C)(C)C(O)C(Oc1ccc(Cl)cc1)n1cncn1 (configuration not stated),2.9,
O=[N+]([O-])c1cccc2c1-c1cccc3c([N+](=O)[O-])ccc-2c13,4.44,
ClCC1(C(Cl)Cl)C2CC(Cl)(Cl)C1(C(Cl)Cl)C(Cl)C2Cl (configuration not stated),5.96,
CC(C)N(C(=O)COc1nnc(C(F)(F)F)s1)c1ccc(F)cc1,3.2,
Nc1cccc2c(N)cccc12,0.89,
CCNc1nc(NC(C)C)nc(OC)n1,2.69,
CC(C)(C)C1CCCCC1,5.04,
COC(=O)C1CCN1CC(O)Cn1ccnc1 (configuration not stated),-0.29,
O=C1CCC(c2ccc[n+]([O-])c2)N1 (configuration not stated),-1.01,
O=C1CCC2CCC(=O)N12,-1.11,
COCCn1cnc2c(=N)n(C)c(=O)[nH]c21,-0.96,
CC[C@H](C)[C@H](NC(=O)[C@@H](NC(=O)[C@@H](NC(C)=O)C(C)C)C(C)C)C(N)=O (Ac-Val-Val-Ile-NH2),0.49,
CN(C)P1(=O)N(C)CCN1C,0.02,
Nc1ccc(Cl)c(N)c1,0.85,
O=C(O)C1CCN1CC(O)Cn1ccnc1 (configuration not stated),-2.02,
O=c1ccn(C2OC(CO)C(O)C2O)c(=O)n1Cc1ccccc1 (configuration not stated),0.33,
Clc1cc(Cl)c(-c2ccc(Cl)c(Cl)c2Cl)cc1Cl,7.44,
CCCCCOC(=O)c1ccccc1C(=O)OCCCCC,5.62,
CN(CCO)C(=O)COC(=O)c1ccccc1O,0.86,

SMILES,logP,solubility
CCCCCCCCC1(CC)C(=O)NC(=O)NC1=O,3.78,
CCN1CCCC1CNC(=O)c1c(OC)ccc(Br)c1O (configuration not stated),2,
CC(C)Cc1ccc(C(C)(O)C(=O)O)cc1 (configuration not stated),2.75,
CCCN(CC1CC1)c1c([N+](=O)[O-])cc(C(F)(F)F)cc1[N+](=O)[O-],5.58,
OC(Cn1cncn1)(c1ccc(F)cc1)c1ccccc1F (configuration not stated),2.29,
O=P(O)(O)CN(CCCCCCN(CP(=O)(O)O)CP(=O)(O)O)CP(=O)(O)O,-4.43,30.5 mM
Cc1cc(OCCNCC2CC(=O)c3ccccc3C2=O)c(C(C)C)cc1O (configuration not stated),4.25,
CCC1CCCCC1,4.56,
CSc1ccc(C=C(C#N)C#N)o1,2.45,
O=C(CCl)N1CCOCC1,-0.6,
COC(=O)C1=C(C)NC(C)=C(C(=O)O[C@@H]2CCCN(Cc3ccccc3)C2)[C@@H]1c1cccc([N+](=O)[O-])c1,4.61,
O=C(O)c1ccccc1Nc1cccc(Cl)c1,5.43,
N#Cc1cc(I)c(O)c(I)c1,3.43,
CCNC(N)=S,-0.21,
C[C@H](CCC(=O)NCC(=O)O)[C@H]1CC[C@H]2[C@@H]3[C@H](O)[C@H](O)[C@@H]4C[C@H](O)CC[C@]4(C)[C@H]3CC[C@]12C,1.9,
CCCN1CCOC2c3cccc(O)c3CCC21 (configuration not stated),2.22,
c1cnc2c(c1)cc1ccc3cccc4ccc2c1c34,5.53,
Cc1ncc(CO)c(C=O)c1O.Cl,,2460 mM
ClCCCBr,2.18,
C=CCOc1ccccc1OCC(CNC(C)C)OC(=O)C=CC (configuration not stated),3.65,
CCN(CC)CCCN=c1cc2n(-c3ccc(Cl)cc3)c3ccccc3nc-2cc1Nc1ccc(Cl)cc1,8.05,
CC(C)(C)[C@@H](O)[C@H](Cc1ccc(Cl)cc1Cl)n1cncn1,3.8,
CNC[C@H](O)c1ccc(O)c(O)c1,-1.2,
c1ccc2c(c1)[nH]c1cnccc12,3.17,
CCCCCCCCCCCCN1CC(C(=O)OC)CC1=O (configuration not stated),4,

SMILES,logP,solubility
Cc1ccc2c(ccc3ccccc32)c1,4.86,
NS(=O)(=O)c1nn2c(=Nc3ccc(Cl)cc3)snc2s1,3.63,
NS(=O)(=O)c1cc2c(cc1Cl)N=C(CSCc1ccccc1)NS2(=O)=O,1.73,
CC(=O)OCN1C(=O)NC(c2ccccc2)(c2ccccc2)C1=O,2.23,
C=CCSCC1Nc2cc(Cl)c(S(N)(=O)=O)cc2S(=O)(=O)N1 (configuration not stated),1.17,
CCCC(CCC)=NNC(=N)N,1.73,
Cc1cc(Br)cc(C)c1C#[N+][O-],3.63,
CC(=O)OCN1C(=O)c2ccccc2C1=O,1.15,
CCNc1nc(NCC)nc(SC)n1,2.8,
c1ccc2c(c1)oc1ccccc12,,0.0184 mM
CSCCCOc1ccc([N+](=O)[O-])cc1,3.24,
CCCCCCCCNC(=O)n1cc(F)c(=O)[nH]c1=O,3.9,
Clc1ccc(Cl)c(-c2cc(Cl)c(Cl)cc2Cl)c1,5.68,
Nc1cnn(-c2ccccc2)c(=O)c1Cl,1.14,
COC(=O)C1=C(C)NC(C)=C(C(=O)OCCN2CCN(C(c3ccccc3)c3ccccc3)CC2)C1c1cccc([N+](=O)[O-])c1 (configuration not stated),5.2,
Cc1ccc(-c2ccc(C)cc2)cc1,5.09,
NC(=S)NN=Cc1ccco1,1.64,
Nc1c(OC2C=CC(N3CCCCCC3=O)=CC2)cc(O)c2c1C(=O)c1ccccc1C2=O (configuration not stated),5.3,
c1ccc(Cn2ccnc2)cc1,1.6,
CC(CC(=O)c1ccccc1)C(=O)O (configuration not stated),1.62,
COC(=O)c1ccsc1S(=O)(=O)NC(=O)Nc1nc(OC)nc(OC)n1,1.3,
N=C(N)NN=C1C=CC(=NNC(N)=S)C=C1,1.23,
OC[C@@H]1C[C@H](F)[C@H](n2cnc3cncnc32)O1,-0.4,
O=C1CCC(=O)N1c1cc(Cl)cc(Cl)c1,1.4,
C=CCC1(CC(C)O)C(=O)NC(=O)NC1=O (configuration not stated),-0.05,
